Reference: patent US20230286927A1, “2-PHENYLBENZOTRIAZOL-5-AMINE DERIVATIVES FOR THE TREATMENT AND PROPHYLAXIS OF HEPATITIS B VIRUS (HBV) INFECTION” (priority 2020, published 2023)

Legend:
HBeAg = experiment: PHH natural infection assay, HBeAg (alphalisa); assay type: cell-based, HBV; settings: Hepatitis B virus, Hepatocyte, 72 h, read-out: HBeAg IC50
Method: (§1) Detailed procedures regarding primary human hepatocyte (PHH) HBV natural infection assay are described as below. One tube of frozen PHH (10 million cells) is thawed in 37° C. water bath and then transferred to 20 mL of PHH thawing medium (Sigma, InVitroGRO HT Medium, Cat. S03319) with gently mixing. The cells were then centrifuged at […] for 5 min, the supernatant was discarded and the tube was refilled with 25 mL of PHH plating medium (Sigma, InVitroGRO CP Medium, Cat. S03317). The tube was shaken very gently to re-suspend all cells, and then 50 μl of cells were transferred to each well 384-well collagen I coated plate with appropriate liquid handling equipment, e.g. Integra VIAFLO384 or Agilent Bravo. The cells were then cultured for 24 hours in a cell incubator. For HBV infection, after PHH attachment on the culture plate, the plating medium was removed and replenished with PHH culture medium containing HBV virus. The PHH culture medium was prepared with Dulbecco's Modified Eagle Medium (DMEM)/F12 (1:1 in volume ratio) containing 10% fetal bovine serum (Gibco, Cat. 10099141), 5 ng/mL human epidermal growth factor (Gibco, Cat.PHG031IL), 20 ng/mL dexamethasone (Sigma, Cat.D4902-100 mg), 250 ng/mL human recombinant insulin (Gibco, Cat.41400045) and 100 U/mL penicillin. HBV virus at 200 genome equivalent (GE) per cell with 4% PEG8000 (Sigma, Cat.P1458) containing culture medium were added to the PHH culture medium for infection. The cells were then cultured for 24 hours in cell incubator. Then the cell culture supernatant was removed. The HBV-infected PHH were cultured with sandwich culture method with PHH culture medium containing 1% DMSO and 0.25 mg/mL matrix gel for 72 hours. The supernatant was then refreshed with PHH culture medium containing different concentrations of testing compounds for two times with 72-hour interval. At the end of treatment, the supernatant was collected for viral markers measurements, including HBsAg, HBeAg, HBV DNA and cytotoxicity. HBsAg and HBeAg were detected using alphalisa method using their specific antibodies. For HBV DNA detection, HBV DNA Quantitative Fluorescence Diagnostic Kit (Sansure Biotech Inc.) was used following the manufacture's protocol. Cytotoxicity was determined using Cell Counting Kit-8 (CCK8, Dojindo Molecular Technologies, Inc.).
(§2) The compounds of the present invention were tested for their capacity to inhibit HBsAg and HBeAg as described herein.

[1] = Cytotoxicity in PHH natural infection assay (Cell Counting Kit-8); assay type: cell-based; settings: HBV-infected primary human hepatocytes, CCK8
Method: as §1

HBsAg = experiment: PHH natural infection assay, HBsAg (alphalisa); assay type: cell-based, HBV; settings: Hepatitis B virus, Hepatocyte, 72 h, read-out: HBsAg IC50
Method: as §1, §2

Structure (SMILES)	IC50 (HBeAg)	CC50 at 144 h [1]	IC50 (HBsAg)
Fc1ccc(-n2nc3ccc(NCC4CCOC4)cc3n2)cc1 (stereo not drawn) [Example 20, 2-(4-Fluorophenyl)-N-(tetrahydrofuran-3-ylmethyl)benzotriazol-5-amine]	7.3 µM	> 100 µM	5.66 µM
O=C(Nc1ccc2nn(-c3ccc(Cl)cc3)nc2c1)C1COCCO1 (stereo not drawn) [Example 47, N-[2-(4-chlorophenyl)benzotriazol-5-yl]-1,4-dioxane-2-carboxamide]	1.84 µM	> 100 µM	3.73 µM
COCCN(C)c1ccc2nn(-c3ccc(Cl)cc3)nc2c1 [Example 35, 2-(4-Chlorophenyl)-N-(2-methoxyethyl)-N-methyl-benzotriazol-5-amine]	3.5 µM	> 100 µM	2 µM
O=C(Nc1ccc2nn(-c3ccc(Cl)cc3)nc2c1)C1CCOC1 (stereo not drawn) [Example 48, N-[2-(4-chlorophenyl)benzotriazol-5-yl]tetrahydrofuran-3-carboxamide]	3.12 µM	> 100 µM	4.81 µM
O=C(Nc1ccc2nn(-c3ccc(F)cc3)nc2c1)C1CCOCC1 [Example 41, N-[2-(4-fluorophenyl)benzotriazol-5-yl]tetrahydropyran-4-carboxamide]	2.31 µM	> 100 µM	2.19 µM
COCCNc1ccc2nn(-c3ccc(S(C)(=O)=O)cc3)nc2c1 [Example 19, N-(2-methoxyethyl)-2-(4-methylsulfonylphenyl)benzotriazol-5-amine]	6.97 µM	> 100 µM	8.94 µM
Clc1ccc(-n2nc3ccc(NC4CCC4)cc3n2)cc1 [Example 29, 2-(4-Chlorophenyl)-N-cyclobutyl-benzotriazol-5-amine]	9.23 µM	> 100 µM	5.55 µM
Clc1ccc(-n2nc3ccc(NCC4CCC4)cc3n2)cc1 [Example 24, 2-(4-Chlorophenyl)-N-(cyclobutylmethyl)benzotriazol-5-amine]	8.9 µM	> 100 µM	7.72 µM
Clc1ccc(-n2nc3ccc(NCC4CC4)cc3n2)cc1 [Example 25, 2-(4-Chlorophenyl)-N-(cyclopropylmethyl)benzotriazol-5-amine]	7.52 µM	> 100 µM	5.95 µM
Nc1ccc2nn(-c3cccc(F)c3)nc2c1 [Example 5, 2-(3-Fluorophenyl)benzotriazol-5-amine]	6.72 µM	> 100 µM	3.57 µM
CNC(=S)Nc1ccc2nn(-c3ccc(Cl)cc3)nc2c1 [Example 54, 1-[2-(4-chlorophenyl)benzotriazol-5-yl]-3-methyl-thiourea]	4.59 µM	> 100 µM	2.68 µM
COc1ccc(-n2nc3ccc(N)cc3n2)cc1 [Example 3, 2-(4-Methoxyphenyl)benzotriazol-5-amine]	1.7 µM	> 100 µM	1.5 µM
CC(=O)Nc1ccc2nn(-c3ccc(Cl)cc3)nc2c1 [Example 38, N-[2-(4-chlorophenyl)benzotriazol-5-yl]acetamide]	5.54 µM	> 100 µM	3.65 µM
CC(C)c1csc(Nc2ccc3nn(-c4ccc(Cl)cc4)nc3c2)n1 [Example 62, N-[2-(4-chlorophenyl)benzotriazol-5-yl]-4-isopropyl-thiazol-2-amine]	5.8 µM	> 100 µM	3.8 µM
Cc1cc2nn(-c3ccc(Cl)cc3)nc2cc1NC(N)=S [Example 60, [2-(4-Chlorophenyl)-6-methyl-benzotriazol-5-yl]thiourea]	2.31 µM	> 100 µM	2.28 µM
Nc1ccc2nn(-c3ccc(F)cc3)nc2c1 [Example 4, 2-(4-Fluorophenyl)benzotriazol-5-amine]	5.29 µM	> 100 µM	5.04 µM

Structure (SMILES)	IC50 (HBeAg)	CC50 at 144 h [1]	IC50 (HBsAg)
O=C(Nc1ccc2nn(-c3ccc(F)cc3)nc2c1)C1CCOC1 (stereo not drawn) [Example 40, N-[2-(4-fluorophenyl)benzotriazol-5-yl]tetrahydrofuran-3-carboxamide]	6.76 µM	> 100 µM	6.66 µM
Cc1nc(Nc2ccc3nn(-c4ccc(Cl)cc4)nc3c2)sc1C [Example 65, N-[2-(4-chlorophenyl)benzotriazol-5-yl]-4,5-dimethyl-thiazol-2-amine]	2.91 µM	> 100 µM	2.67 µM
CCS(=O)(=O)c1ccc(-n2nc3ccc(N)cc3n2)cc1 [Example 8, 2-(4-Ethylsulfonylphenyl)benzotriazol-5-amine]	6.26 µM	> 100 µM	6.32 µM
NC(=S)Nc1ccc2nn(-c3ccc(Cl)cc3)nc2c1 [Example 53, [2-(4-Chlorophenyl)benzotriazol-5-yl]thiourea]	2.87 µM	> 100 µM	3.37 µM
O=C(NC(=S)Nc1ccc2nn(-c3ccc(Cl)cc3)nc2c1)C1CCCC1 [Example 56, N-[[2-(4-chlorophenyl)benzotriazol-5-yl]carbamothioyl]cyclopentanecarboxamide]	7.5 µM	> 100 µM	3.45 µM
CCCNc1ccc2nn(-c3ccc(Cl)cc3)nc2c1 [Example 14, 2-(4-Chlorophenyl)-N-propyl-benzotriazol-5-amine]	3.97 µM	> 100 µM	2.92 µM
CNc1ccc2nn(-c3ccc(Cl)cc3)nc2c1 [Example 12, 2-(4-Chlorophenyl)-N-methyl-benzotriazol-5-amine]	2.44 µM	> 100 µM	1.83 µM
Clc1ccc(-n2nc3ccc(NCC4CCCO4)cc3n2)cc1 (stereo not drawn) [Example 27, 2-(4-Chlorophenyl)-N-(tetrahydrofuran-2-ylmethyl)benzotriazol-5-amine]	11.7 µM	> 100 µM	6.07 µM
O=C(Nc1ccc2nn(-c3ccc(F)cc3)nc2c1)C1CCCC1 [Example 43, N-[2-(4-fluorophenyl)benzotriazol-5-yl]cyclopentanecarboxamide]	12.8 µM	> 100 µM	8.2 µM
COCCNc1ccc2nn(-c3cccc(OC)c3)nc2c1 [Example 17, N-(2-methoxyethyl)-2-(3-methoxyphenyl)benzotriazol-5-amine]	15.4 µM	> 100 µM	8.06 µM
CC(C)Nc1ccc2nn(-c3ccc(Cl)cc3)nc2c1 [Example 30, 2-(4-Chlorophenyl)-N-isopropyl-benzotriazol-5-amine]	6.61 µM	> 100 µM	3.75 µM
Fc1ccc(-n2nc3ccc(NC4CCOC4)cc3n2)cc1 (stereo not drawn) [Example 21, 2-(4-Fluorophenyl)-N-tetrahydrofuran-3-yl-benzotriazol-5-amine]	10.6 µM	> 100 µM	9.74 µM
O=C(Nc1ccc2nn(-c3ccc(Cl)cc3)nc2c1)C1CCCCC1 [Example 39, N-[2-(4-chlorophenyl)benzotriazol-5-yl]cyclohexanecarboxamide]	2.89 µM	> 100 µM	3.91 µM
CCN(CC)c1ccc2nn(-c3ccc(Cl)cc3)nc2c1 [Example 34, 2-(4-Chlorophenyl)-N,N-diethyl-benzotriazol-5-amine]	2.5 µM	> 100 µM	1.8 µM
CN(C)c1ccc2nn(-c3ccc(Cl)cc3)nc2c1 [Example 33, 2-(4-Chlorophenyl)-N,N-dimethyl-benzotriazol-5-amine]	3.71 µM	> 100 µM	4 µM
